In ChEMBL document CHEMBL6083256, “Design, synthesis and biological evaluation of novel oxazole derivatives as potential hypoglycemic agents” (Bioorg Med Chem, 2024):

Assays:
[1] = molecular target: AMP-activated protein kinase, AMPK (Homo sapiens) (UniProt P54646+O43741+P54619+Q9UGJ0+Q9Y478+Q13131+Q9UGI9); assay: Induction of AMPK phosphorylation at Thr172 in human HepG2 cells incubated for 24 hrs by Western blot analysis; type: cell-based; conditions: filed as activator
HepG2 [2] = assay: Induction of glucose consumption in starved human HepG2 cells assessed as fold increase in activity at 20 uM incubated for 24 hrs relative to control; type: functional
HepG2 [3] = assay: Induction of glucose consumption in starved human HepG2 cells incubated for 24 hrs; type: functional, cell-based; conditions: dose 1-25 µM
3T3-L1 [4] = assay: Induction of glucose consumption in starved mouse 3T3-L1 cells incubated for 24 hrs; type: functional, cell-based; conditions: dose 1-25 µM
HepG2 [5] = assay: Cytotoxicity against human HepG2 cells at 25 uM incubated for 72 hrs by CCK8 assay; type: toxicity, cell-based; conditions: hepg2, 72 h
3T3-L1 [6] = assay: Cytotoxicity against mouse 3T3-L1 cells at 25 uM incubated for 72 hrs by CCK8 assay; type: toxicity, cell-based; conditions: 3t3-l1, 72 h
[7] = Cytotoxicity against human HepG2 cells incubated for 72 hrs by CCK8 assay; type: toxicity, cell-based
[8] = Cytotoxicity against mouse 3T3-L1 cells incubated for 72 hrs by CCK8 assay; type: toxicity, cell-based
HepG2 [9] = assay: Cytotoxicity against human HepG2 cells assessed as change in cell morphology at 3.125 to 100 uM incubated for 72 hrs; type: toxicity, cell-based; conditions: hepg2, 72 h, dose 3.125-100 µM
3T3-L1 [10] = assay: Cytotoxicity against mouse 3T3-L1 cells assessed as change in cell morphology at 3.125 to 100 uM incubated for 72 hrs; type: toxicity, cell-based; conditions: 3t3-l1, 72 h, dose 3.125-100 µM
Mus musculus = assay: Hypoglycemic activity in overnight-fasted C57BL/6J mouse assessed as reduction in blood glucose level at 80 mg/kg, ip pretreated for 30 mins followed by glucose administration measured upto 120 mins by OGTT analysis; type: functional, organism-based; conditions: time 150.0 min
CYP3A4 = CYP3A4 (Homo sapiens, UniProt P08684); assay: Inhibition of CYP3A4 in human liver microsomes at 10 uM relative to control; type: ADME, Microsome
Sequence of CYP3A4 (P08684 whole entry): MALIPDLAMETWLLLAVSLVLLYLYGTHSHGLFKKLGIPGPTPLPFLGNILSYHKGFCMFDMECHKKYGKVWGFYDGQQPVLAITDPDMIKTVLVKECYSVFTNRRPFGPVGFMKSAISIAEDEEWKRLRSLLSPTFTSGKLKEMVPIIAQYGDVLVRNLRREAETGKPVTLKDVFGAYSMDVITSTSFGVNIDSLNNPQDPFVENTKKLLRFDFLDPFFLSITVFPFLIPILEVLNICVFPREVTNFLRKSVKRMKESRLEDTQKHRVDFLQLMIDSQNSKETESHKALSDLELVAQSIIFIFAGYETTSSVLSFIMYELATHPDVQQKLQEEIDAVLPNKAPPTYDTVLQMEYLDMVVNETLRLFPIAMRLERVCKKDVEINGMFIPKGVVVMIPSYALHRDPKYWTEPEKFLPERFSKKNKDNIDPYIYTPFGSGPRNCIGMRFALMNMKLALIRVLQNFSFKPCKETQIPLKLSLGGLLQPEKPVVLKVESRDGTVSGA

CYP2C9 = CYP2C9 (Homo sapiens, UniProt P11712); assay: Inhibition of CYP2C9 in human liver microsomes at 10 uM relative to control; type: ADME, Microsome
Sequence of CYP2C9 (P11712 whole entry): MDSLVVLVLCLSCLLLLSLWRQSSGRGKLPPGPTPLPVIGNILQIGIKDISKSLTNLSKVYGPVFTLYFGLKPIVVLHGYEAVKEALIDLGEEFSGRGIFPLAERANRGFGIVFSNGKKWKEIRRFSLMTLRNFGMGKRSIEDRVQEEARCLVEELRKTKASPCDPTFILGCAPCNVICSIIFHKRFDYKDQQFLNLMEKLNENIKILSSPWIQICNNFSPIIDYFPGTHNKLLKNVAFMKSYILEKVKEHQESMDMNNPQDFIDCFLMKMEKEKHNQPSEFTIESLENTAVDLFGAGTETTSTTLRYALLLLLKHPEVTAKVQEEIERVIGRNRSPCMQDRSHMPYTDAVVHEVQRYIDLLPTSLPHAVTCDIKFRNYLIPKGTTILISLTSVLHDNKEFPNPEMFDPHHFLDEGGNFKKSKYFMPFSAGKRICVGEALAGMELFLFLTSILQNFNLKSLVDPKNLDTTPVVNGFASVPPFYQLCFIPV

CYP2C19 = CYP2C19 (Homo sapiens, UniProt P33261); assay: Inhibition of CYP2C19 in human liver microsomes at 10 uM relative to control; type: ADME, Microsome
Sequence of CYP2C19 (P33261 whole entry): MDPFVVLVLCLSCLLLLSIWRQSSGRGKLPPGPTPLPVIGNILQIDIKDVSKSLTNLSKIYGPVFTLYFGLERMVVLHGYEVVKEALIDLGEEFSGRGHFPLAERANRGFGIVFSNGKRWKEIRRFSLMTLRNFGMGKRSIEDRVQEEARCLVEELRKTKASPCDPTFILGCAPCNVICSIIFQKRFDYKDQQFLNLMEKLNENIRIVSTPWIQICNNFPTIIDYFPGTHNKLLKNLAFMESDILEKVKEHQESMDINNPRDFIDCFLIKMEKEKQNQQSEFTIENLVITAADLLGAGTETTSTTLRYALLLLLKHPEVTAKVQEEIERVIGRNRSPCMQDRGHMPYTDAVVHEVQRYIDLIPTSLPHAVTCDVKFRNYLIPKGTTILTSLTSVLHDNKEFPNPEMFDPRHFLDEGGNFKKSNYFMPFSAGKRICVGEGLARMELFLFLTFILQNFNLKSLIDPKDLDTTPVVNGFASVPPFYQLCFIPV

CYP2D6 = CYP2D6 (Homo sapiens, UniProt P10635); assay: Inhibition of CYP2D6 in human liver microsomes at 10 uM relative to control; type: ADME, Microsome
Sequence of CYP2D6 (P10635 whole entry): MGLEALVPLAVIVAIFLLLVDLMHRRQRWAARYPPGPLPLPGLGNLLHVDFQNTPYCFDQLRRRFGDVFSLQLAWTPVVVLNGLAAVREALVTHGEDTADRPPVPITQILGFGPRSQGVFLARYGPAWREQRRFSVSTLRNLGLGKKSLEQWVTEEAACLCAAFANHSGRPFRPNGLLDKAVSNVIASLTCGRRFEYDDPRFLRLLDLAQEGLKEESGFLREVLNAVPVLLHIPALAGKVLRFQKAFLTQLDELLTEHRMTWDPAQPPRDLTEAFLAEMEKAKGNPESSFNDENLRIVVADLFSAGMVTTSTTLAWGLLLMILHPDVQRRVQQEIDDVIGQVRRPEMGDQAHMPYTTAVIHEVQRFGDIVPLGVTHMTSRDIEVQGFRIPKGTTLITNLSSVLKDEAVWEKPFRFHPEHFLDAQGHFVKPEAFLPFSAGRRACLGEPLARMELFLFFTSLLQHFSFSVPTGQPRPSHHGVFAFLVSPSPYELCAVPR

CYP1A2 = molecular target: T1, CYP1A2 (Homo sapiens, UniProt P05177); assay: Inhibition of CYP1A2 in human liver microsomes at 10 uM relative to control; type: ADME, Microsome
T1 sequence (P05177 whole entry): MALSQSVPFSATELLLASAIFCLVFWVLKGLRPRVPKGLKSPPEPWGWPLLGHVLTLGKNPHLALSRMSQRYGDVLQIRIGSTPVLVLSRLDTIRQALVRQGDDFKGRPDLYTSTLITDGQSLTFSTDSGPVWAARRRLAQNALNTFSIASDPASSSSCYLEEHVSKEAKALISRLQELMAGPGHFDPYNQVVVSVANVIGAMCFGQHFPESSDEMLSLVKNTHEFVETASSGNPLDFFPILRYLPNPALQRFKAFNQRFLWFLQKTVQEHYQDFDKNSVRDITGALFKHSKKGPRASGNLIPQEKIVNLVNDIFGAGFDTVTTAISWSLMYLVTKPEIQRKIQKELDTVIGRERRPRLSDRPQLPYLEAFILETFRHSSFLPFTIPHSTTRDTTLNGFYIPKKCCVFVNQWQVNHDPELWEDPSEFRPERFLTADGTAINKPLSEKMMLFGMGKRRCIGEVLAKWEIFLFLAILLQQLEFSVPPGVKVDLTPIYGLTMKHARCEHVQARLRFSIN

HepG2 [11] = assay: Cytotoxicity against human HepG2 cells at 100 uM incubated for 72 hrs by CCK8 assay; type: toxicity, cell-based; conditions: hepg2, 72 h
3T3-L1 [12] = assay: Cytotoxicity against mouse 3T3-L1 cells at 100 uM incubated for 72 hrs by CCK8 assay; type: toxicity, cell-based; conditions: 3t3-l1, 72 h
HepG2 [13] = assay: Induction of glucose consumption in starved human HepG2 cells assessed as fold increase in activity at 2 mM incubated for 24 hrs relative to control; type: functional

In the case of COC(=O)C1CCN(Cc2coc(-c3ccc(C(F)(F)F)cc3)n2)CC1, the Activity [1] was “Dose-dependent-effect”, the “fold change (FC)” value (HepG2 [2]) was 1.6 and the Activity (HepG2 [3]) was “Dose-dependent-effect”. For the same compound, the Activity (3T3-L1 [4]) was “Dose-dependent-effect”, the Activity (HepG2 [5]) was “Non-toxic” and the Activity (3T3-L1 [6]) was “Non-toxic”. The IC50 at 72 h [7] was over 100 µM, the IC50 at 72 h [8] was over 100 µM and the Activity (HepG2 [9]) was “Non-toxic”. For the same compound, the Activity (3T3-L1 [10]) was “Non-toxic”, the Activity (Mus musculus) was “Active; Exhibited Strongest Activity Than Other Tested Compounds” and the inhibition at 10 µM (CYP3A4) was 2.1%. The inhibition at 10 µM (CYP2C9) was 5.8%, the inhibition at 10 µM (CYP2C19) was 21.7% and the inhibition at 10 µM (CYP2D6) was 4.6%. For the same compound, the inhibition at 10 µM (CYP1A2) was 16.2%.

For OCC1CCN(Cc2coc(-c3cccc(Cl)c3)n2)CC1, the “fold change (FC)” value (HepG2 [2]) was 1.05.

With CN1CCN(Cc2coc(-c3ccc(C(F)(F)F)cc3)n2)CC1 the “fold change (FC)” value (HepG2 [2]) was 1.5.

With COC1CCCN(Cc2coc(-c3ccc(C(F)(F)F)cc3)n2)C1 (configuration not stated) the “fold change (FC)” value (HepG2 [2]) was 1.05.

For COc1ccc(-c2nc(CN3CCC(CO)CC3)co2)cc1, the “fold change (FC)” value (HepG2 [2]) was 1.05.

In the case of CC(=O)N1CCN(Cc2coc(-c3ccc(C(F)(F)F)cc3)n2)CC1, the “fold change (FC)” value (HepG2 [2]) was 1.21.

In the case of OCC1CCN(Cc2coc(-c3cc(F)cc(F)c3)n2)CC1, the “fold change (FC)” value (HepG2 [2]) was 0.95.

In the case of COCC1CCN(Cc2coc(-c3ccc(C(F)(F)F)cc3)n2)CC1, the “fold change (FC)” value (HepG2 [2]) was 1.2.

In the case of CS(=O)(=O)C1CCN(Cc2coc(-c3ccc(C(F)(F)F)cc3)n2)CC1, the “fold change (FC)” value (HepG2 [2]) was 1.39.

In the case of OCC1CCCN(Cc2coc(-c3ccc(C(F)(F)F)cc3)n2)C1 (configuration not stated), the “fold change (FC)” value (HepG2 [2]) was 1.42.

In the case of OCC1CCN(Cc2coc(-c3ccc(C(F)(F)F)cc3)n2)CC1, the “fold change (FC)” value (HepG2 [2]) was 1.43.

In the case of CC(C)(C)OC(=O)N1CCN(Cc2coc(-c3ccc(C(F)(F)F)cc3)n2)CC1, the “fold change (FC)” value (HepG2 [2]) was 1.46.

With OCC1CCN(Cc2coc(-c3ccc(F)cc3)n2)CC1 the “fold change (FC)” value (HepG2 [2]) was 1.27.

For OCC1CCN(Cc2coc(-c3cccc(F)c3)n2)CC1, the “fold change (FC)” value (HepG2 [2]) was 1.12.

For COC1CCN(Cc2coc(-c3ccc(C(F)(F)F)cc3)n2)CC1, the “fold change (FC)” value (HepG2 [2]) was 1.61, the Activity (HepG2 [3]) was “Dose-dependent-effect” and the Activity (3T3-L1 [4]) was “Dose-dependent-effect”. For the same compound, the Activity (HepG2 [5]) was “Non-toxic”, the Activity (3T3-L1 [6]) was “Non-toxic” and the IC50 at 72 h [7] was over 100 µM. For the same compound, the IC50 at 72 h [8] was over 100 µM, the Activity (HepG2 [9]) was “Non-toxic” and the Activity (3T3-L1 [10]) was “Non-toxic”. The Activity (Mus musculus) was “Not active; Exhibited Weak Activity”.

For FC(F)(F)c1ccc(-c2nc(CN3CCOCC3)co2)cc1, the “fold change (FC)” value (HepG2 [2]) was 1.52.

In the case of NC1CCN(Cc2coc(-c3ccc(C(F)(F)F)cc3)n2)CC1, the “fold change (FC)” value (HepG2 [2]) was 1.6, the Activity (HepG2 [3]) was “Dose-dependent-effect” and the Activity (3T3-L1 [4]) was “Dose-dependent-effect”. For the same compound, the Activity (HepG2 [11]) was “Toxic”, the Activity (3T3-L1 [12]) was “Toxic” and the Activity (Mus musculus) was “Not active; Exhibited Minimal Activity”.

With OC1CCN(Cc2coc(-c3ccc(C(F)(F)F)cc3)n2)CC1 the “fold change (FC)” value (HepG2 [2]) was 1.42.

With CS(=O)(=O)N1CCN(Cc2coc(-c3ccc(C(F)(F)F)cc3)n2)CC1 the “fold change (FC)” value (HepG2 [2]) was 1.63, the Activity (HepG2 [3]) was “Dose-dependent-effect” and the Activity (3T3-L1 [4]) was “Dose-dependent-effect”. For the same compound, the Activity (HepG2 [5]) was “Non-toxic”, the Activity (3T3-L1 [6]) was “Non-toxic” and the IC50 at 72 h [7] was over 100 µM. The IC50 at 72 h [8] was over 100 µM, the Activity (HepG2 [9]) was “Non-toxic” and the Activity (3T3-L1 [10]) was “Non-toxic”. The Activity (Mus musculus) was “Not active; Exhibited Minimal Activity”.

In the case of CCOC(=O)C1CCN(Cc2coc(-c3ccc(C(F)(F)F)cc3)n2)CC1, the “fold change (FC)” value (HepG2 [2]) was 1.34.

In the case of Cc1ccc(-c2nc(CN3CCC(CO)CC3)co2)cc1, the “fold change (FC)” value (HepG2 [2]) was 1.39.

In the case of OCC1CCN(Cc2coc(-c3cccc(C(F)(F)F)c3)n2)CC1, the “fold change (FC)” value (HepG2 [2]) was 1.4.

For OC1CCCN(Cc2coc(-c3ccc(C(F)(F)F)cc3)n2)C1 (configuration not stated), the “fold change (FC)” value (HepG2 [2]) was 1.49.

For CCOC1CCN(Cc2coc(-c3ccc(C(F)(F)F)cc3)n2)CC1, the “fold change (FC)” value (HepG2 [2]) was 1.42.

With Cc1cccc(-c2nc(CN3CCC(CO)CC3)co2)c1 the “fold change (FC)” value (HepG2 [2]) was 1.25.

In the case of OCC1CCN(Cc2coc(-c3ccc(Cl)cc3)n2)CC1, the “fold change (FC)” value (HepG2 [2]) was 1.24.

In the case of COc1cccc(-c2nc(CN3CCC(CO)CC3)co2)c1, the “fold change (FC)” value (HepG2 [2]) was 1.27.

In the case of OCC1CCN(Cc2coc(-c3ccccc3)n2)CC1, the “fold change (FC)” value (HepG2 [2]) was 1.36.

In the case of CN(C)C(=N)NC(=N)N [METFORMIN], the “fold change (FC)” value (HepG2 [13]) was 1.57.
